Data: US20260217687A1 (NeoPhore Limited, priority 2023, published 2026)

Molecular target: T1, recombinant N-terminal MLH1 (residues 15-340) (Homo sapiens, UniProt P40692)
T1 construct: recombinant N-terminal MLH1 (residues 15-340)
T1 sequence (P40692 15-340): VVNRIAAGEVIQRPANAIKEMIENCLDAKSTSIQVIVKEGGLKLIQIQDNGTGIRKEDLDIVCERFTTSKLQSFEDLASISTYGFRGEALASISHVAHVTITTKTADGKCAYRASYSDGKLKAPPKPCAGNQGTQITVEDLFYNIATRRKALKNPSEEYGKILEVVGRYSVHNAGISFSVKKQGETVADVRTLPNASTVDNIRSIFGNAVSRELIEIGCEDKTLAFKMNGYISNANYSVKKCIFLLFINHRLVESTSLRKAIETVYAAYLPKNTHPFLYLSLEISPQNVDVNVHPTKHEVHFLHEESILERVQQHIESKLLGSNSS
Assay: Fluorescence Polarisation Assay for MLH1
Type: binding
Settings: 100 nM N-terminal MLH1, 5 nM probe compound
How it was run: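 Fluorescence polarisation displacement: 100 nM MLH1 (15-340) preincubated 30 min at room temperature with compound, then 5 nM rhodamine-labelled probe added and read immediately. Buffer 25 mM HEPES pH 7.5, 250 mM NaCl, 10 mM MgCl2, 0.01% Triton X-100, 5 mM DTT; normalised to no-inhibitor and no-enzyme controls.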

| SMILES | IC50 [µM] |
| --- | --- |
| COc1cc2c(c(N[C@H]3CCOC3)c1)CN(C(=O)c1c(O)cc(C(F)F)cc1OCc1ccccc1)C2 [Example 4.18, (S)-(2-(Benzyloxy)-4-(difluoromethyl)-6-hydroxyphenyl)(6-methoxy-4-((tetrahydrofuran-3-yl)amino)isoindolin-2-yl)methanone] | 0.1 to 1 |
| CN(C)CCOc1ccc2c(c1)CN(C(=O)c1c(O)cc(C(F)F)cc1OCc1ccccc1)C2 [Example 4.31, (2-(Benzyloxy)-4-(difluoromethyl)-6-hydroxyphenyl)(5-(2-(dimethylamino)ethoxy)isoindolin-2-yl)methanone] | 0.1 to 1 |
| CN1CC[C@H](Nc2cccc3c2CN(C(=O)c2c(O)cc(C#N)cc2OCc2ccccc2)C3)C1=O [Example 10.27, (S)-3-(Benzyloxy)-5-hydroxy-4-(4-((1-methyl-2-oxopyrrolidin-3-yl)amino)isoindoline-2-carbonyl)benzonitrile] | 0.1 to 1 |
| O=C(c1c(O)cc(C(F)F)cc1OCc1ccccc1)N1Cc2cnc(N3CCOCC3)cc2C1 [Example 27.9, (2-(Benzyloxy)-4-(difluoromethyl)-6-hydroxyphenyl)(6-morpholino-1,3-dihydro-2H-pyrrolo[3,4-c]pyridin-2-yl)methanone] | 0.1 to 1 |
| CN1CC[C@@H](Oc2ccc3c(c2)CN(C(=O)c2c(O)cc(C#N)cc2OCc2ccccc2)C3)C1 [Example 10.30, (R)-3-(Benzyloxy)-5-hydroxy-4-(5-((1-methylpyrrolidin-3-yl)oxy)isoindoline-2-carbonyl)benzonitrile] | 0.1 to 1 |
| O=C(c1c(O)cc(C(F)F)cc1OCc1ccccc1)N1CCc2ncccc21 [Example 27.22, (2-(Benzyloxy)-4-(difluoromethyl)-6-hydroxyphenyl)(2,3-dihydro-1H-pyrrolo[3,2-b]pyridin-1-yl)methanone] | 1 to 10 |
| COc1ccc2c(c1)CN(C(=O)c1c(O)cc(C#N)cc1OCc1ccccc1)C2 [Example 13, 3-(Benzyloxy)-5-hydroxy-4-(5-methoxyisoindoline-2-carbonyl)benzonitrile] | 1 to 10 |
| CN1CCN(c2cc3c(cn2)CN(C(=O)c2c(O)cc(C#N)cc2OCc2ccccc2)C3)CC1 [Example 27.1, 3-(Benzyloxy)-5-hydroxy-4-(6-(4-methylpiperazin-1-yl)-2,3-dihydro-1H-pyrrolo[3,4-c]pyridine-2-carbonyl)benzonitrile] | 1 to 10 |
| CN(C)CCOc1cc2c(c(N[C@@H]3CCOC3)c1)CN(C(=O)c1c(O)cc(Cl)cc1OCc1ccccc1)C2 [Example 9, (R)-(2-(Benzyloxy)-4-chloro-6-hydroxyphenyl)(6-(2-(dimethylamino)ethoxy)-4-((tetrahydrofuran-3-yl)amino)isoindolin-2-yl)methanone] | 0.1 to 1 |
| CN(C)CCOc1cc2c(c(N[C@H]3CCOC3)c1)CN(C(=O)c1c(O)cc(C#N)cc1OCc1ccccc1)CC2 [Example 15, (S)-3-(Benzyloxy)-4-(6-(2-(dimethylamino)ethoxy)-8-((tetrahydrofuran-3-yl)amino)-1,2,3,4-tetrahydroisoquinoline-2-carbonyl)-5-hydroxybenzonitrile] | < 0.1 |
| O=C(c1c(O)cc(C(F)F)cc1OCc1ccccc1)N1CCc2cc(NC3CCOC3)ccc21 (single isomer, unassigned) [Example 27.5a, (S)-(2-(Benzyloxy)-4-(difluoromethyl)-6-hydroxyphenyl)(5-((tetrahydrofuran-3-yl)amino)indolin-1-yl)methanone or (R)-(2-(Benzyloxy)-4-(difluoromethyl)-6-hydroxyphenyl)(5-((tetrahydrofuran-3-yl)amino)indolin-1-yl)methanone] | 0.1 to 1 |
| CN(C)CCOc1cccc2c1CCN2C(=O)c1c(O)cc(C#N)cc1OCc1ccccc1 [Example 27.12, 3-(Benzyloxy)-4-(4-(2-(dimethylamino)ethoxy)indoline-1-carbonyl)-5-hydroxybenzonitrile] | 1 to 10 |
| N#Cc1cc(O)c(C(=O)N2Cc3cccc(NC4COC4)c3C2)c(OCc2ccccn2)c1 [Example 10.38, 3-Hydroxy-4-(4-(oxetan-3-ylamino)isoindoline-2-carbonyl)-5-(pyridin-2-ylmethoxy)benzonitrile] | 1 to 10 |
| CN1CC[C@@H](Nc2cccc3c2CN(C(=O)c2c(O)cc(C(F)F)cc2OCc2ccccc2)C3)C1=O [Example 4.14, (R)-3-((2-(2-(Benzyloxy)-4-(difluoromethyl)-6-hydroxybenzoyl)isoindolin-4-yl)amino)-1-methylpyrrolidin-2-one] | 0.1 to 1 |
| CN1CC(Nc2cccc3c2CN(C(=O)c2c(O)cc(C#N)cc2OCc2ccccc2)C3)CC1=O (centres unmarked) [Example 10.3, 3-(Benzyloxy)-5-hydroxy-4-(4-((1-methyl-5-oxopyrrolidin-3-yl)amino)isoindoline-2-carbonyl)benzonitrile] | 0.1 to 1 |
| CC(=O)N1CC(Nc2cccc3c2CN(C(=O)c2c(O)cc(C#N)cc2OCc2ccccc2)C3)C1 [Example 16, 4-(4-((1-Acetylazetidin-3-yl)amino)isoindoline-2-carbonyl)-3-(benzyloxy)-5-hydroxybenzonitrile] | 0.1 to 1 |
| O=C(c1c(O)cc(C(F)F)cc1OCc1ccccc1)N1CCc2cc(Cn3ccnc3)ccc2C1 [Example 4.49, (6-((1H-Imidazol-1-yl)methyl)-3,4-dihydroisoquinolin-2(1H)-yl)(2-(benzyloxy)-4-(difluoromethyl)-6-hydroxyphenyl)methanone] | 0.1 to 1 |
| CN1CC[C@@H](Nc2cccc3c2CN(C(=O)c2c(O)cc(C#N)cc2OCc2ccccc2)C3)C1=O [Example 10.28, (R)-3-(benzyloxy)-5-hydroxy-4-(4-((1-methyl-2-oxopyrrolidin-3-yl)amino)isoindoline-2-carbonyl)benzonitrile] | 0.1 to 1 |
| CN(C)Cc1cc2c(c(N[C@H]3CCOC3)c1)CN(C(=O)c1c(O)cc(C(F)F)cc1OCc1ccccc1)CC2 [Example 4.21, (S)-(2-(Benzyloxy)-4-(difluoromethyl)-6-hydroxyphenyl)(6-((dimethylamino)methyl)-8-((tetrahydrofuran-3-yl)amino)-3,4-dihydroisoquinolin-2(1H)-yl)methanone] | < 0.1 |
| CN1CCN(CCOc2ccc3c(c2)CN(C(=O)c2c(O)cc(C(F)F)cc2OCc2ccccc2)C3)CC1 [Example 4.71, (2-(Benzyloxy)-4-(difluoromethyl)-6-hydroxyphenyl) (5-(2-(4-methylpiperazin-1-yl)ethoxy)isoindolin-2-yl) methanone] | 0.1 to 1 |
| COc1cc2c(c(N[C@H]3CCOC3)c1)CN(C(=O)c1c(O)cc(Cl)cc1OCc1ccccc1)C2 [Example 10.2, (S)-(2-(Benzyloxy)-4-chloro-6-hydroxyphenyl)(6-methoxy-4-((tetrahydrofuran-3-yl)amino)isoindolin-2-yl)methanone] | 0.1 to 1 |
| O=C1OCCC1Nc1cccc2c1CN(C(=O)c1c(O)cc(C(F)F)cc1OCc1ccccc1)C2 (centres unmarked) [Example 4.16, 3-((2-(2-(Benzyloxy)-4-(difluoromethyl)-6-hydroxybenzoyl)isoindolin-4-yl)amino)dihydrofuran-2(3H)-one] | 0.1 to 1 |
| CN1CCC(Oc2ccc3c(c2)CN(C(=O)c2c(O)cc(C(F)F)cc2OCc2ccccc2)CC3)CC1 [Example 4.44, (2-(Benzyloxy)-4-(difluoromethyl)-6-hydroxyphenyl)(7-((1-methylpiperidin-4-yl)oxy)-3,4-dihydroisoquinolin-2(1H)-yl)methanone] | 0.1 to 1 |
| COc1cc2c(c(N[C@@H]3CCOC3)c1)CN(C(=O)c1c(O)cc(Cl)cc1OCc1ccccc1)C2 [Example 10.1, (R)-(2-(Benzyloxy)-4-chloro-6-hydroxyphenyl)(6-methoxy-4-((tetrahydrofuran-3-yl)amino)isoindolin-2-yl)methanone] | 1 to 10 |
| O=C(c1c(O)cc(C(F)F)cc1OCc1ccccc1)N1CCc2cccnc21 [Example 27.15, (2-(Benzyloxy)-4-(difluoromethyl)-6-hydroxyphenyl)(2,3-dihydro-1H-pyrrolo[2,3-b]pyridin-1-yl)methanone] | 1 to 10 |
| O=C(c1c(O)cc(C(F)F)cc1OCc1ccccc1)N1CCc2ccc(NC3CCOC3)cc21 (single isomer, unassigned) [Example 27.2a, (S)-(2-(Benzyloxy)-4-(difluoromethyl)-6-hydroxyphenyl)(6-((tetrahydrofuran-3-yl)amino)indolin-1-yl)methanone or (R)-(2-(Benzyloxy)-4-(difluoromethyl)-6-hydroxyphenyl)(6-((tetrahydrofuran-3-yl)amino)indolin-1-yl)methanone] | 0.1 to 1 |
| N#Cc1cc(O)c(C(=O)N2CCCc3cc(NC4CCOC4)ccc32)c(OCc2ccccc2)c1 (centres unmarked) [Example 27.18, 3-(Benzyloxy)-5-hydroxy-4-(6-((tetrahydrofuran-3-yl)amino)-1,2,3,4-tetrahydroquinoline-1-carbonyl)benzonitrile] | 1 to 10 |
| CN(C)Cc1ccc2c(c1)CN(C(=O)c1c(O)cc(C(F)F)cc1OCc1ccccc1)CC2 [Example 4.42, (2-(Benzyloxy)-4-(difluoromethyl)-6-hydroxyphenyl)(7-((dimethylamino)methyl)-3,4-dihydroisoquinolin-2(1H)-yl)methanone] | 0.1 to 1 |
| COc1cc(O)c(C(=O)N2Cc3cccc(N[C@@H]4CCOC4)c3C2)c(OCc2ccccc2)c1 [Example 2, (R)-(2-(Benzyloxy)-6-hydroxy-4-methoxyphenyl)(4-((tetrahydrofuran-3-yl)amino)isoindolin-2-yl)methanone] | 0.1 to 1 |
